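Cultured in 96-well plates, cells were exposed to test compound for 48 hours across five concentrations. At the TGI there is no net growth.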
Experiments:
Assay in all cases: growth of human tumour cells (NCI), 48 h
A549 NSCLC = tested on: A549 NSCLC
CCRF-CEM leukemia = tested on: CCRF-CEM leukemia
HCT-15 colon = tested on: HCT-15 colon
LOX IMVI melanoma = tested on: LOX IMVI melanoma
M14 melanoma = tested on: M14 melanoma
MOLT-4 leukemia = tested on: MOLT-4 leukemia
NCI-H460 lung = tested on: NCI-H460 lung
OVCAR-5 ovarian = tested on: OVCAR-5 ovarian
RXF 393 renal = tested on: RXF 393 renal
SK-MEL-28 melanoma = tested on: SK-MEL-28 melanoma
SK-MEL-5 melanoma = tested on: SK-MEL-5 melanoma
RPMI-8226 leukemia = tested on: RPMI-8226 leukemia
MDA-MB-435 = tested on: MDA-MB-435

SMILES	TGI (A549 NSCLC)	TGI (CCRF-CEM leukemia)	TGI (HCT-15 colon)	TGI (LOX IMVI melanoma)	TGI (M14 melanoma)	TGI (MOLT-4 leukemia)	TGI (NCI-H460 lung)	TGI (OVCAR-5 ovarian)	TGI (RXF 393 renal)	TGI (SK-MEL-28 melanoma)	TGI (SK-MEL-5 melanoma)	TGI (RPMI-8226 leukemia)	TGI (MDA-MB-435)
CC(=O)OC(CC1(C)C(C)CCC23COC(=O)C2=CCCC31)c1ccoc1 (configuration not stated)	> 100 µM	80.3 µM	56.2 µM	47.9 µM	33.9 µM	90.3 µM	> 100 µM	67.4 µM	27.7 µM	33 µM	42.1 µM	–	–
CCOC(=O)C1SC(=Nc2ccc(OC)c(OC)c2)N=C1C (configuration not stated)	> 100 µM	59 µM	> 100 µM	> 100 µM	> 100 µM	–	> 100 µM	> 100 µM	> 100 µM	> 100 µM	37.2 µM	–	–
CCOC(=O)CC1COc2ccc3c(c21)OCO3 (configuration not stated)	> 100 µM	> 100 µM	> 100 µM	> 100 µM	> 100 µM	> 100 µM	> 100 µM	> 100 µM	–	> 100 µM	> 100 µM	> 100 µM	–
CCOC(=O)CC(c1ccccc1)C(C)(C(=O)OCC)C(=O)OCC (configuration not stated)	> 100 µM	> 100 µM	> 100 µM	> 100 µM	> 100 µM	> 100 µM	> 100 µM	> 100 µM	60.9 µM	> 100 µM	> 100 µM	–	–
O=C(O)/C(Cl)=C(\Cl)C(=O)c1ccccc1	> 100 µM	> 100 µM	> 100 µM	> 100 µM	> 100 µM	> 100 µM	> 100 µM	> 100 µM	> 100 µM	> 100 µM	> 100 µM	–	–
O=C(Nc1ccc(Cl)cc1C(F)(F)F)C(=O)C1CCCS1(=O)=O (configuration not stated)	> 100 µM	> 100 µM	> 100 µM	> 100 µM	> 100 µM	> 100 µM	> 100 µM	> 100 µM	> 100 µM	> 100 µM	> 100 µM	> 100 µM	–
Nc1ccc2[nH]c(-c3cccc(C(F)(F)F)c3)cc(=O)c2c1	> 100 µM	59.9 µM	> 100 µM	> 100 µM	> 100 µM	> 100 µM	> 100 µM	> 100 µM	–	> 100 µM	> 100 µM	> 100 µM	88.6 µM
N#CCc1c(-c2ccccc2)n(S(=O)(=O)c2ccccc2)c2ccccc12	> 100 µM	> 100 µM	> 100 µM	–	> 100 µM	> 100 µM	> 100 µM	> 100 µM	–	> 100 µM	> 100 µM	> 100 µM	–
CC(C)C(=O)N1Cc2cc(Cl)cc(Cl)c2OC(=O)c2ccccc21	> 100 µM	94.7 µM	85.9 µM	59 µM	61.7 µM	62 µM	> 100 µM	90 µM	–	> 100 µM	38.3 µM	96.8 µM	–
CCOC(=O)Cn1c2ccccc2c(=O)c2cc(C)c(C)c(C#N)c21	> 100 µM	> 100 µM	> 100 µM	> 100 µM	–	> 100 µM	> 100 µM	> 100 µM	> 100 µM	> 100 µM	–	> 100 µM	–
COC(=O)C1CCC(=O)N1C(c1cc(OC)c(OC)c(OC)c1)c1cc(OC)c(OC)c(OC)c1 (configuration not stated)	> 100 µM	–	> 100 µM	> 100 µM	> 100 µM	> 100 µM	> 100 µM	> 100 µM	–	> 100 µM	–	> 100 µM	> 100 µM
CC(=O)Oc1cc(S(=O)(=O)Nc2n[nH]c(Nc3ccc(C)cc3)n2)c(S)cc1Cl	> 100 µM	> 100 µM	> 100 µM	> 100 µM	> 100 µM	> 100 µM	> 100 µM	> 100 µM	–	> 100 µM	> 100 µM	> 100 µM	> 100 µM
O=C(/C=C\c1cccc2ccccc12)c1ccc(F)cc1	81.2 µM	41.8 µM	31.8 µM	–	29.9 µM	74.2 µM	33.2 µM	33.2 µM	–	26.4 µM	33 µM	–	–
COc1ccc(/C(C)=N/NC(=O)c2ccncc2)c(OC)c1	> 10 µM	> 10 µM	> 10 µM	> 10 µM	> 10 µM	> 10 µM	> 10 µM	–	–	> 10 µM	> 10 µM	> 10 µM	–
CCCCn1c(CSc2ccc(Cl)cc2)c(C(=O)OCC)c2cc(OC)c(Br)cc21	> 100 µM	> 100 µM	> 100 µM	> 100 µM	> 100 µM	> 100 µM	> 100 µM	> 100 µM	–	> 100 µM	> 100 µM	> 100 µM	> 100 µM
CCOC(=O)C(=O)C=P(c1ccccc1)(c1ccccc1)c1ccccc1	> 100 µM	> 100 µM	> 100 µM	> 100 µM	> 100 µM	> 100 µM	> 100 µM	> 100 µM	> 100 µM	> 100 µM	> 100 µM	> 100 µM	–
COc1ccc(OC)c(NCC(=O)Nn2cnc3ccc(S(=O)(=O)Nc4cc(OC)ccc4OC)cc3c2=O)c1	> 100 µM	> 100 µM	> 100 µM	> 100 µM	> 100 µM	> 100 µM	> 100 µM	> 100 µM	–	> 100 µM	–	–	> 100 µM
C=CCNC(=S)N1CC(C)C(=O)Nc2cc(Cl)ccc21 (configuration not stated)	> 100 µM	–	> 100 µM	–	> 100 µM	> 100 µM	> 100 µM	> 100 µM	> 100 µM	> 100 µM	> 100 µM	> 100 µM	–
CC(=O)OCC1OC(n2ccc(=O)[nH]c2=O)C(OC(C)=O)C(OC(C)=O)C1OC(C)=O (configuration not stated)	> 100 µM	> 100 µM	> 100 µM	> 100 µM	> 100 µM	–	> 100 µM	> 100 µM	> 100 µM	> 100 µM	> 100 µM	> 100 µM	–
COC(=O)c1cc(C(=O)OC)c(CC(=O)C(=O)NC2C3CC4CC(C3)CC2C4)nc1CC(=O)C(=O)NC1C2CC3CC(C2)CC1C3 (configuration not stated)	> 100 µM	> 100 µM	> 100 µM	> 100 µM	> 100 µM	> 100 µM	> 100 µM	> 100 µM	> 100 µM	> 100 µM	> 100 µM	> 100 µM	–
O=C/C1=C/C2=Cc3ccccc3C=C(/C=C(/C=O)C1)C2	> 100 µM	74.9 µM	> 100 µM	> 100 µM	> 100 µM	90.9 µM	> 100 µM	> 100 µM	88.6 µM	> 100 µM	> 100 µM	> 100 µM	–
COc1ccc(C2=NN(c3ccccc3)C[N+](c3ccc(C)cc3)=N2)cc1	> 100 µM	60.8 µM	> 100 µM	> 100 µM	–	88.5 µM	> 100 µM	79.8 µM	57.9 µM	> 100 µM	> 10 µM	67.4 µM	–
C1CSCCSCCCSC2CCCCC2SC1 (configuration not stated)	> 100 µM	> 100 µM	> 100 µM	> 100 µM	> 100 µM	> 100 µM	> 100 µM	> 100 µM	–	> 100 µM	> 100 µM	> 100 µM	> 100 µM
Clc1cc2nn(C3CCCCO3)nc2cc1Cl (configuration not stated)	> 100 µM	> 100 µM	> 100 µM	–	> 100 µM	> 100 µM	> 100 µM	> 100 µM	> 100 µM	–	> 100 µM	–	> 100 µM
Cc1c(C)c(C)c(Cn2[nH]c(=O)n(C)c2=O)c(C)c1C	> 100 µM	> 100 µM	> 100 µM	> 100 µM	> 100 µM	> 100 µM	> 100 µM	–	–	> 100 µM	> 100 µM	> 100 µM	> 100 µM
CNC(=O)NCNC(=O)NC	> 100 µM	> 100 µM	> 100 µM	> 100 µM	> 100 µM	> 100 µM	> 100 µM	> 100 µM	–	> 100 µM	> 100 µM	> 100 µM	–
COc1c(C)cc2c(C(C)C)c(O)c(O)c(C=O)c2c1O	> 100 µM	> 100 µM	> 100 µM	68.9 µM	64.4 µM	> 100 µM	> 100 µM	86 µM	55.2 µM	75.1 µM	33.1 µM	> 100 µM	–
COc1cc(C2C3=C(COC3=O)Oc3cc4c(cc32)OCO4)ccc1O (configuration not stated)	> 100 µM	> 100 µM	> 100 µM	> 100 µM	> 100 µM	> 100 µM	> 100 µM	> 100 µM	> 100 µM	> 100 µM	0.736 µM	> 63.2 µM	–
COc1cc2c(c(OC)c1OC)-c1ccc(SC)c(=O)cc1C(CC(=O)Oc1cccc([N+](=O)[O-])c1)C2 (configuration not stated)	> 100 µM	> 57.2 µM	2.24 µM	> 32.1 µM	> 100 µM	> 100 µM	8.13 µM	> 100 µM	> 100 µM	> 100 µM	> 100 µM	> 54.8 µM	–
CC1CN=C(NS(=O)(=O)c2cc(C(=O)Nc3ccc(Cl)cc3)c(Cl)cc2S)NN1 (configuration not stated)	> 100 µM	> 100 µM	> 100 µM	> 100 µM	69.5 µM	> 100 µM	> 100 µM	> 100 µM	–	83.9 µM	28.8 µM	70.8 µM	73.1 µM

Reference: PubChem BioAssay (NCI)
